The text below walks through data of BindingDB's records for doi:10.1016/s0960-894x(98)00169-3 (Merck Research Laboratories, 1999).

The target in the experiment is Beta-2 adrenergic receptor (Homo sapiens, UniProt P07550). The experiment can be described thus: Compound was tested for agonist activity against cloned human beta-2 adrenergic receptor at a concentration of 1000 nM.

pEC50: −log10 of the molar value. Some results are limits rather than exact numbers.

Usually pEC50 stands for the negative decadic logarithm of the EC50, by convention in mol/L. Lower therefore signals a large EC50.

Beta-2 adrenergic receptor, sequence (P07550 whole entry): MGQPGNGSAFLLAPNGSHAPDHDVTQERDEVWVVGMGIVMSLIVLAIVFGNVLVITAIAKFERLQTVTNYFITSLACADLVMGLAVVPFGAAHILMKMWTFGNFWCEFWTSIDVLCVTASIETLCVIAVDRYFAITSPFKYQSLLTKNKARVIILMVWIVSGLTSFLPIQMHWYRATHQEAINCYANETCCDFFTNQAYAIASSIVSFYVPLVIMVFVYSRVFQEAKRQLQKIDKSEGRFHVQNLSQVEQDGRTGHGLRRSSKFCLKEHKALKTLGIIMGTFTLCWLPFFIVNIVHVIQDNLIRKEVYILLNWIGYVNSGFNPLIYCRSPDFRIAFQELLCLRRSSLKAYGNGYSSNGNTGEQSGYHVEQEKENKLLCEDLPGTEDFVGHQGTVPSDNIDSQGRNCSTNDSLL

`COc1ccc(CC[C@H](C)NC[C@@H](O)COc2ccc(O)cc2)cc1` [4-{(R)-2-Hydroxy-3-[(S)-3-(4-methoxy-phenyl)-1-methyl-propylamino]-propoxy}-phenol] gave a pEC50 above 10.00.
